Measured values as given in patent publication US8697385B1, “Protein controlling synthesis of collagen and associated methods” (Florida State University Research Foundation, Inc., priority 2009, dated 2014).

Key:
myosin IIB = experiment: Western blot analysis of total nonmuscle myosin IIB level; type: cell-based, human; settings: Western blot; ML-7 40 μM 16 h
Experimental: (§1) ML-7, blebbistatin, cytochalasin B, puromycin, and cycloheximide were purchased from Sigma. ML-7 was used at 40 μM, blebbistatin was used at 100 μM, and cytochalasin B was used at 20 μM. Cells were incubated with the drugs for 16 h before analysis. Puromycin (200 μg/ml) and cycloheximide (100 μg/ml) were added to the cells for 2 h. Human lung fibroblasts have been described previously.16 Scleroderma fibroblasts were purchased from the European Collection of Cell Cultures (cell line BM0070) and derived from the skin of a scleroderma patient. MEFs were derived from knock-in mice in which the 5′SL of the collagen α1(I) gene has been mutated (Parsons et al., submitted). Several independent cell isolates were used throughout the study. All cells were cultured in Dulbecco's modified Eagle's medium supplemented with 10% fetal bovine serum for up to 10 passages. […] [^32P]dCTP was included in the PCR step to label the products, which were resolved on sequencing gels, as described previously.^8,31,49,50 When RNA from polysomal fractions was analyzed, an equal aliquot of each fraction was used. […]
(§2) Protein concentration was estimated by the Bradford assay, with bovine serum albumin as standard.^51 Western blot analyses of cellular proteins were performed using 50 μg of protein. […] The medium was collected, and an aliquot was analyzed directly by Western blot analysis. […]

polysomes = experiment: Fractionation of polysomes on sucrose gradients; type: cell-based, human
Experimental: (§3) ML-7, blebbistatin, cytochalasin B, puromycin, and cycloheximide were purchased from Sigma. ML-7 was used at 40 μM, blebbistatin was used at 100 μM, and cytochalasin B was used at 20 μM. Cells were incubated with the drugs for 16 h before analysis. Puromycin (200 μg/ml) and cycloheximide (100 μg/ml) were added to the cells for 2 h. Human lung fibroblasts have been described previously.16 Scleroderma fibroblasts were purchased from the European Collection of Cell Cultures (cell line BM0070) and derived from the skin of a scleroderma patient. MEFs were derived from knock-in mice in which the 5′SL of the collagen α1(I) gene has been mutated (Parsons et al., submitted). Several independent cell isolates were used throughout the study. All cells were cultured in Dulbecco's modified Eagle's medium supplemented with 10% fetal bovine serum for up to 10 passages. Plasmid constructs and adenovirus preparation. The HA-tagged LARP6 clone and the deletion mutants have been described previously.^16 Adenoviruses were constructed by recloning of the constructs into the pAdCMVTRACK vector, followed by recombination with the pAdEasy vector and amplification, as described previously.^48 Expression of each construct was verified by Western blot analysis. The viruses made express both the full-size test protein and the green fluorescent protein (GFP), which is encoded by an independent transcription unit.^48 Expression of GFP served as control for viral transduction. RT-PCR analysis Total cellular RNA was isolated using an RNA isolation kit (Sigma). RT-PCRs were performed with 100 ng of total RNA or using rTth reverse transcriptase (Boca Scientific, Boca Raton, Fla.). [^32P]dCTP was included in the PCR step to label the products, which were resolved on sequencing gels, as described previously.^8,31,49,50 When RNA from polysomal fractions was analyzed, an equal aliquot of each fraction was used. The number of cycles was adjusted to within the linear range of the reaction. The primers used for RT-PCR were as follows: h-collagen α1(I), 5′ primer […] (SEQ ID NO:3) and 3′ primer […] (SEQ ID NO:4); h-collagen α2(I), 5′ primer […] (SEQ ID NO:5) and 3′ primer […] (SEQ ID NO:6).
Polysomes were fractionated as described previously.^16 Sucrose fractions (0.5 ml) were collected, and total RNA was extracted by phenol/chloroform and isopropanol precipitation. Equivalent amounts of each fraction were analyzed by RT-PCR. Total proteins were extracted from sucrose fractions by trichloroacetic acid precipitation, and equivalent amounts were analyzed by Western blot analysis.
One of the roles of nonmuscle myosin filaments may be to present collagen mRNAs to ribosomes. Therefore, we assessed if the association of collagen mRNAs with nonmuscle myosin is dependent on intact polysomes. […] Only the anti-myosin antibody immunoprecipitated collagen α1(I) and α2(I) mRNAs (lane 1). We then immunoprecipitated nonmuscle myosin from lung fibroblasts treated with cycloheximide or puromycin and analyzed if this can change the pull-down of collagen mRNAs. As control, the association with vimentin was analyzed in the same samples (FIG. 9b). […] The association of collagen mRNAs with vimentin increased after the dissociation of polysomes (lanes 3 and 4). […] To assess if nonmuscle myosin copurifies with polysomes, we fractionated polysomes on sucrose gradients^16 and analyzed for the presence of nonmuscle myosin in the fractions using Western blot analysis (FIG. 9f). […]

[1] = system: nonmuscle myosin filaments; experiment: Immunostaining of nonmuscle myosin IIB filaments in scleroderma fibroblasts; type: cell-based, human; settings: ML-7, compared with effect in lung fibroblasts
Experimental: as §1, §2

human lung fibroblasts = experiment: Western blot analysis of cellular and medium collagen polypeptides, lung fibroblasts; type: cell-based; settings: 16 h, ML-7 40 μM, blebbistatin 100 μM, vs control cells
Experimental: as §3
(§4) Protein concentration was estimated by the Bradford assay, with bovine serum albumin as standard.^51 Western blot analyses of cellular proteins were performed using 50 μg of protein. For Western blot analysis of secreted proteins, equal numbers of cells were seeded, serum-free medium was added to the cells, and incubation continued for 3 h. The medium was collected, and an aliquot was analyzed directly by Western blot analysis. Use of serum free medium in collecting secreted proteins is essential because fetal calf serum contains substantial amounts of collagen and fibronectin.^15,31 For immunostaining, cells were seeded onto glass coverslips. After treatment, the cells were fixed with 4% paraformaldehyde for 30 min at room temperature and permeabilized with 0.5% Triton X-100 in phosphatebuffered saline (PBS) for 10 min. After the cells had been blocked with 10% goat serum/5% bovine serum albumin in PBS for 1 h at room temperature, they were incubated with primary antibody overnight at 4° C., washed, and visualized with AlexaFluor594-conjugated or Cy-2-conjugated secondary antibodies. The cells were mounted using VECTASHIELD mounting medium containing […], 6-diamidino-2-phenylindole (Vector Laboratories), and images were taken by a Leica TCS SP2 AOBS laser confocal microscope equipped with a Chameleon Ti: Sapphire multiphoton laser. Optical sections were processed with LCSLite software.
(§5) To assess the role of nonmuscle myosin in collagen synthesis, we disrupted nonmuscle myosin filaments in two different cell types: primary human lung fibroblasts and primary scleroderma skin fibroblasts. These cells are responsible for lung and skin fibrosis. […]

wild-type (WT) MEFs = experiment: Western blot analysis of collagen α1(I) polypeptide, WT MEFs; type: cell-based, mouse; settings: ML-7 treatment
Experimental: as §1, §2

[2] = system: primary scleroderma skin fibroblasts; experiment: Western blot analysis of cellular and medium collagen polypeptides, scleroderma fibroblasts; type: cell-based, human; settings: 16 h, ML-7 40 μM, blebbistatin 100 μM
Experimental: as §3, §4, §5

O=S(=O)(c1cccc2c(I)cccc12)N1CCCNCC1 [ML-7]
total level of myosin IIB (myosin IIB): remained unchanged
nonmuscle myosin in polysomal fractions (polysomes; 15-45% sucrose gradient, Western blot, puromycin or ML-7 treatment): decrease in the amount of nonmuscle myosin in the heaviest fractions
distribution of collagen α1(I) and α2(I) mRNAs in polysomal fractions (polysomes; ML-7-treated vs control cells, RT-PCR of fractions): a small fraction of collagen α1(I) and α2(I) mRNAs were shifted into nonpolysomal fractions 16 and 17
overall distribution of polysomes (polysomes; ML-7 treatment): did not have an effect
total level of collagen α1(I) and α2(I) mRNAs (polysomes; ML-7 treatment, RT-PCR, sum of all fractions): not significantly affected
myosin IIB immunostaining (filaments) [1]: same effect
secretion of collagen α1(I) polypeptide into the medium (human lung fibroblasts; cytochalasin B 20 μM): found in similar amounts
secretion of collagen α2(I) polypeptide into the medium (human lung fibroblasts; cytochalasin B 20 μM): secreted only in trace amounts
secretion/expression of fibronectin (human lung fibroblasts; cytochalasin B 20 μM): not affected
intracellular level of collagen α1(I) and α2(I) polypeptides (human lung fibroblasts): not significantly affected
cellular level of α1(I) polypeptide (wild-type (WT) MEFs): did not change
secretion of α1(I) polypeptide into the medium (wild-type (WT) MEFs): drastically reduced
intracellular level of collagen α1(I) polypeptide [2]: not changed
intracellular level of collagen α2(I) polypeptide [2]: reduced
secretion of collagen α1(I) polypeptide into the medium ([2]; cytochalasin B 20 μM): barely detectable
secretion of collagen α2(I) polypeptide into the medium ([2]; cytochalasin B 20 μM): absent
secretion/expression of fibronectin ([2]; cytochalasin B 20 μM): not affected
